According to paper PMC4445981, “The glutamate transport inhibitor DL-Threo-β-Benzyloxyaspartic acid (DL-TBOA) differentially affects SN38- and oxaliplatin-induced death of drug-resistant colorectal cancer cells” (BMC Cancer, 2015):

How the values were obtained:
Type in all cases: cell-based, human
[1] = system: [3H]-D-Asp uptake (glutamate transporter activity) in HCT116-PAR cells; assay: [3H]-D-Asp uptake assay, HCT116-PAR; conditions: HCT116-PAR, 100 nM [3H]-D-Asp, 6 min, 37 °C
Protocol: (§1) We therefore next determined glutamate transporter activity (as uptake of the substrate [^3H]-D-Asp following a 6-min incubation in buffer supplemented with a tracer concentration of 100 nM [^3H]-D-Asp). […] To determine which transporter(s) was responsible for the [^3H]-D-Asp uptake, we assessed the effect of DL-TBOA, a nonselective inhibitor of EAATs, and UCPH-101, a specific SLC1A3 inhibitor [16, 28, 29]. […] Basal [^3H]-D-Asp uptake was decreased by about 60 % in SN38-resistant compared to parental HCT116 cells, whereas that in SN38-resistant LoVo cells was nearly tripled compared to parental LoVo cells.
(§2) The [^3H]-D-Asp uptake assay was performed essentially as in [30]. Briefly, cells were split into poly-D-lysine-coated white 96-well plates (PerkinElmer). A similar number of cells were seeded for HCT116 parental, HCT116-SN38 and HCT116-Oxa cell lines (7 × 10^4 cells/well) and LoVo parental, Lovo-SN38 and Lovo-Oxa cell lines (6 × 10^4 cells/well). 16–24 h later, culture medium was aspirated, and cells were washed once with 100 μl assay buffer (Hank’s Buffered Saline Solution supplemented with 20 mM HEPES, 1 mM CaCl2 and 1 mM MgCl2, pH 7.4). 50 μl assay buffer supplemented with 100 nM [^3H]-D-Asp and test compounds as indicated was added, and the plate was incubated at 37 °C for 6 min. Non-specific [^3H]-D-Asp uptake was determined in wells with 3 mM L-glutamate. The assay mixture was quickly removed, and wells were washed with 2 × 100 μl ice-cold assay buffer, followed by 150 μl Microscint™20 scintillation fluid (PerkinElmer). The plate was shaken for 1 h and counted in a Wallac 1450 MicroBeta Trilux scintillation counter (GMI, Ramsey, MN).

[2] = system: [3H]-D-Asp uptake (glutamate transporter activity) in HCT116-SN38 cells; assay: [3H]-D-Asp uptake assay, HCT116-SN38; conditions: HCT116-SN38, 100 nM [3H]-D-Asp, 6 min, 37 °C
Protocol: as §1, §2

[3] = system: [3H]-D-Asp uptake (glutamate transporter activity) in LoVo-PAR cells; assay: [3H]-D-Asp uptake assay, LoVo-PAR; conditions: LoVo-PAR, 100 nM [3H]-D-Asp, 6 min, 37 °C
Protocol: as §1, §2

[4] = system: [3H]-D-Asp uptake in HCT116 and LoVo cells (parental and resistant); assay: [3H]-D-Asp uptake assay, summary over cell lines; conditions: all cell lines; read-out: IC50 values, inhibition of basal [3H]-D-Asp uptake
Protocol: as §1, §2

[5] = system: parental and drug-resistant HCT116 and LoVo cell lines; assay: Nucleus (DAPI) counting of adherent cells, OPERA confocal; conditions: DL-TBOA 70 or 350 μM with SN38 or oxaliplatin, 48 h
Protocol: Cells were seeded in 96-well plates (Greiner Bio) one day prior to experiments. Cells were treated with chemotherapy and/or inhibitors as indicated and incubated for 48 h. Medium was aspirated, and cells were washed gently in ice cold PBS, fixed in 2 % paraformaldehyde, washed in PBS, and nuclei stained by 5 min incubation with DAPI. Plates were scanned using an OPERA high-throughput microscope (PerkinElmer). Nucleus counting was performed using proprietary OPERA software, based on 100 points per well, and cell counts from non-treated cells as controls.
Supplementary file 12885_2015_1405_MOESM2_ESM.tiff: Additional file 2: Figure S2. Nucleus counting after treatment of parental and drug-resistant HCT116 and LoVo cells with DL-TBOA. Parental and drug-resistant HCT116 and LoVo cell lines seeded in 96-well dishes were exposed to SN38 (0.1 or 0.8 μM) or oxaliplatin (0.8 or 20 μM), alone or in combination with 70 or 350 μM DL-TBOA as indicated, for 48 h. Cells were washed in PBS, fixed in 2 % paraformaldehyde and nuclei were stained with DAPI. The number of adherent cells was determined by automated counting using an OPERA confocal microscope. (A-B) Parental HCT116 cells. (C) SN38 resistant HCT116 cells. (D) Oxaliplatin-resistant HCT116 cells. (E-F) Parental LoVo cells. (G) SN38 resistant LoVo cells. (H) Oxaliplatin-resistant LoVo cells. […]

PARP-1 cleavage = PARP-1 cleavage by Western blotting; conditions: DL-TBOA; HCT116 and LoVo cells
Protocol: Cells were grown to a confluence of 60-80 % and treated with chemotherapy, siRNA- or plasmid transfection as indicated. Cells were washed once in PBS, lysed in lysis buffer (1 % SDS, 0.1 M Tris pH 7.5, and 1 mM Na3VO4), sonicated, and protein content determined (DC assay, BioRad). Lysates were mixed 2:1with NuPage LDS sample buffer (Invitrogen). SDS-PAGE was carried out in NOVEX chambers with NuPAGE 10 % Bis-Tris gels under reducing and denaturing conditions, using BenchMark protein ladder (Invitrogen), and 15 μg protein per lane. Proteins were transferred to PVDF membranes, which were Ponceau S stained, blocked for 1 h at 37 °C in 5 % nonfat dry milk in TBST (0.01 M Tris/HCl, 0.15 M NaCl, 0.1 % Tween 20, pH 7.4), incubated overnight at 4 °C with primary antibodies diluted in blocking buffer, washed in TBST, incubated with secondary antibodies for 1 h, washed in TBST, and developed using BCIP/NBT (KPL). Bands were scanned and quantified using UN-SCAN-IT (Silk Scientific).
Supplementary file 12885_2015_1405_MOESM3_ESM.tiff: Additional file 3: Figure S3. […] Equal amounts of protein per lane were separated by SDS-PAGE and the protein levels of p21, and PARP-1 (full-length and cleaved, the latter indicated by arrowheads) were determined by Western blotting. […] Bottom: Densitometric quantifications based on 3 independent experiments per condition. […]

[6] = read-out: IC50, [3H]-D-Asp uptake

## N[C@H](C(=O)O)[C@H](OCc1ccccc1)C(=O)O (racemic) [TBOA, DL-Threo-β-Benzyloxyaspartic acid]
[1]
  pIC50 ± S.E.M., [3H]-D-Asp uptake: 5.75 ± 0.03
[1]; [6]
  IC50: 1800 nM
[2]
  pIC50 ± S.E.M., [3H]-D-Asp uptake: 5.83 ± 0.08
[2]; [6]
  IC50: 1500 nM
[3]
  pIC50 ± S.E.M., [3H]-D-Asp uptake: 5.84 ± 0.03
[3]; [6]
  IC50: 1400 nM
[4]
  IC50: ~2000 nM
[5]
  effect on number of surviving adherent cells after chemotherapy: opposite effects of DL-TBOA on SN38- and oxaliplatin-induced loss of viability are also evident
PARP-1 cleavage
  effect on cellular level of cleaved PARP-1: did not significantly alter
